From publication PMC11822664, “First‐In‐Human Dose Finding Study of Venadaparib (IDX‐1197), a Potent and Selective PARP Inhibitor, in Patients With Advanced Solid Tumors” (Cancer Medicine, 2025)

Test: Plasma pharmacokinetics, noncompartmental analysis (Day 1 and Day 14)
Type: in vivo, human
Conditions: for AUCinf / AUClast / Cmax / T1/2β / Vz / Tmax: day 1; for Tmax: median (min-max)
Procedure: Pharmacokinetic and pharmacodynamic studies were performed during the first cycle of treatment. Plasma samples were analyzed for venadaparib concentration using liquid‐liquid extraction followed by high‐performance liquid chromatography, with detection by mass spectrometry. The plasma concentration–time data were analyzed using noncompartmental analysis (WinNonLin, version 8.0, SAS version 9.4 and R version 3.6.3) to derive pharmacokinetic parameters after the first dose (single‐dose parameters) and after the dose on Day 14 (multiple‐dose parameters). Pharmacodynamic studies were performed by evaluating Poly (ADP‐ribose) in peripheral blood mononuclear cells and quantifying tumor‐tissue lysates using the HT PARP in vivo Pharmacodynamic ELISA Kit II (R&D Systems, 4520‐096‐K).

[1] = Cohort 1: 2 mg once daily, 2 weeks on 1 week off, n=3, mean±SD
[2] = Cohort 2: 5 mg once daily, 2 weeks on 1 week off, n=3, mean±SD
[3] = Cohort 3: 10 mg once daily, 2 weeks on 1 week off, n=3, mean±SD
[4] = Cohort 4: 20 mg once daily, 2 weeks on 1 week off, n=3, mean±SD
[5] = Cohort 5: 20 mg once daily continuously, n=3, mean±SD
[6] = Cohort 6: 40 mg once daily continuously, n=3, mean±SD
[7] = Cohort 7: 80 mg once daily continuously, n=3, mean±SD
[8] = Cohort 8: 120 mg once daily continuously, n=3, mean±SD
[9] = Cohort 9: 160 mg once daily continuously, n=4, mean±SD
[10] = Cohort 10: 240 mg once daily continuously, n=3, mean±SD
[11] = day 14, Cohort 1: 2 mg once daily, 2 weeks on 1 week off, n=3, mean±SD

O=C(c1cc(Cc2n[nH]c(=O)c3ccccc23)ccc1F)N1CC(CNC2CC2)C1 [venadaparib, Venadaparib]
average increase in drug exposure (after 14 days of daily administration): 99% | Time to steady state (after initiation of daily dosing): approximately 2 weeks | AUCinf [1]: 780.62±401.58 (51.4%) [318.42-043.92] h*ug/L | AUClast [1]: 593.00±274.64 (46.3%) [291.48-828.86] h*ug/L | Cmax [1]: 84.50±54.00 (63.9%) [33.40-141.00] ng/mL | T1/2β [1]: 11.64±4.54 (39.0%) [6.72-15.66] h | Vz [1]: 47.20±13.15 (27.8%) [34.62-60.85] L | Tmax (Cohort 1: 2 mg once daily, 2 weeks on 1 week off, n=3): 1.92 (1.03-1.97) h | AUCinf [2]: 1827.86±1666.87 (84.7%) [33.40-141.00] h*ug/L | AUClast [2]: 1340.46±1006.85 (84.7%) [33.40-141.00] h*ug/L | Cmax [2]: 180.00±48.57 (27.0%) [133.00-230.00] ng/mL | T1/2β [2]: 10.52±3.54 (33.7%) [6.97-14.06] h | Vz [2]: 57.08±26.96 (84.7%) [33.40-141.00] L | Tmax (Cohort 2: 5 mg once daily, 2 weeks on 1 week off, n=3): 3.00 (0.55-4.00) h | AUCinf [3]: 3649.06±4836.80 (132.5%) [144.88-9167.47] h*ug/L | AUClast [3]: 2519.97±3026.42 (120.1%) [127.22-5922.09] h*ug/L | Cmax [3]: 204.17±173.02 (84.7%) [33.40-141.00] ng/mL | T1/2β [3]: 9.94±3.14 (31.6%) [7.23-13.39] h | Vz [3]: 333.81±505.10 (151.3%) [21.07-916.53] L | Tmax (Cohort 3: 10 mg once daily, 2 weeks on 1 week off, n=3): 3.00 (2.00-8.02) h | AUCinf [4]: 3039.02±674.82 (22.2%) [2368.04-3717.62] h*ug/L | AUClast [4]: 2754.42±727.50 (26.4%) [1991.23-3440.00] h*ug/L | Cmax [4]: 380.00±146.81 (38.6%) [228.00-521.00] ng/mL | T1/2β [4]: 7.91±2.11 (26.7%) [6.25-10.28] h | Vz [4]: 80.18±39.12 (48.8%) [55.73-125.29] L | Tmax (Cohort 4: 20 mg once daily, 2 weeks on 1 week off, n=3): 3.00 (2.08-4.00) h | AUCinf [5]: 12875.06±5816.24 (45.5%) [7832.01-19189.58] h*ug/L | AUClast [5]: 10232.09±3651.74 (35.7%) [7292.97-14320.11] h*ug/L | Cmax [5]: 1128.00±443.52 (39.3%) [862.00-1640.00] ng/mL | T1/2β [5]: 9.98±3.76 (37.7%) [5.82-13.13] h | Vz [5]: 23.05±4.34 (18.8%) [19.75-27.97] L | Tmax (Cohort 5: 20 mg once daily continuously, n=3): 2.93 (0.50-3.00) h | AUCinf [6]: 15825.90±13925.93 (88.0%) [7229.41-31893.03] h*ug/L | AUClast [6]: 14369.29±12181.96 (84.8%) [6801.11-28421.88] h*ug/L | Cmax [6]: 2043.33±1547.82 (75.7%) [1110.00-3830.00] ng/mL | T1/2β [6]: 6.87±0.36 (5.3%) [6.64-7.29] h | Vz [6]: 37.48±21.36 (57.0%) [13.19-53.37] L | Tmax (Cohort 6: 40 mg once daily continuously, n=3): 2.00 (2.00-3.00) h | AUCinf [7]: 31699.75±12751.32 (40.2%) [17104.01-40676.73] h*ug/L | AUClast [7]: 27733.70±10788.09 (38.9%) [15336.37-34987.13] h*ug/L | Cmax [7]: 3643.33±582.27 (16.0%) [2980.00-4070.00] ng/mL | T1/2β [7]: 8.29±0.47 (5.7%) [7.81-8.75] h | Vz [7]: 35.61±20.31 (57.0%) [23.61-59.06] L | Tmax (Cohort 7: 80 mg once daily continuously, n=3): 1.03 (1.00-3.00) h | AUCinf [8]: 28572.20±24412.45 (85.4%) [12537.00-56667.70] h*ug/L | AUClast [8]: 23020.92±16230.34 (70.5%) [12129.81-41674.88] h*ug/L | Cmax [8]: 2923.33±1179.25 (40.3%) [2030.00-4260.00] ng/mL | T1/2β [8]: 8.56±4.44 (51.9%) [4.97-13.53] h | Vz [8]: 61.75±17.99 (29.1%) [41.34-75.31] L | Tmax (Cohort 8: 120 mg once daily continuously, n=3): 2.00 (1.95-2.07) h | AUCinf [9]: 48298.24±7488.56 (15.5%) [39493.27-55858.21] h*ug/L | AUClast [9]: 42174.71±5663.76 (13.4%) [35508.61-48321.59] h*ug/L | Cmax [9]: 5295.00±628.68 (11.9%) [4820.00-6220.00] ng/mL | T1/2β [9]: 8.15±1.31 (16.1%) [6.18-8.88] h | Vz [9]: 39.02±4.02 (10.3%) [36.11-44.88] L | Tmax (Cohort 9: 160 mg once daily continuously, n=4): 2.00 (1.00-3.00) h | AUCinf [10]: 37514.17±11745.33 (31.3%) [23968.05-44861.59] h*ug/L | AUClast [10]: 35064.82±10936.96 (31.2%) [22440.89-41684.26] h*ug/L | Cmax [10]: 4243.33±1097.38 (25.9%) [2980.00-4960.00] ng/mL | T1/2β [10]: 5.86±0.27 (4.5%) [5.63-6.15] h | Vz [10]: 58.25±20.01 (34.4%) [45.93-81.34] L | Tmax (Cohort 10: 240 mg once daily continuously, n=3): 2.03 (1.95-3.87) h | AUCinf,ss [11]: 1736.03±1605.80 (92.5%) [457.71-3538.38] h*ug/L | AUClast,ss [11]: 1364.99±1236.83 (90.6%) [418.50-2764.45] h*ug/L
